Assay results: patent US10010581B2, “Syndecan peptides and polypeptides and uses thereof” (Wisconsin Alumni Research Foundation, priority 2012, dated 2018)
Where no end group is shown, it is not given here.

B1: heparinase: enzyme treatment that blocks the ability of Sdc1 to bind LN332 (protein, UniProt Q59289 25-659, looked up)
Heparin-sulfate lyase: QSSSITRKDFDHINLEYSGLEKVNKAVAAGNYDDAAKALLAYYREKSKAREPDFSNAEKPADIRQPIDKVTREMADKALVHQFQPHKGYGYFDYGKDINWQMWPVKDNEVRWQLHRVKWWQAMALVYHATGDEKYAREWVYQYSDWARKNPLGLSQDNDKFVWRPLEVSDRVQSLPPTFSLFVNSPAFTPAFLMEFLNSYHQQADYLSTHYAEQGNHRLFEAQRNLFAGVSFPEFKDSPRWRQTGISVLNTEIKKQVYADGMQFELSPIYHVAAIDIFLKAYGSAKRVNLEKEFPQSYVQTVENMIMALISISLPDYNTPMFGDSWITDKNFRMAQFASWARVFPANQAIKYFATDGKQGKAPNFLSKALSNAGFYTFRSGWDKNATVMVLKASPPGEFHAQPDNGTFELFIKGRNFTPDAGVFVYSGDEAIMKLRNWYRQTRIHSTLTLDNQNMVITKARQNKWETGNNLDVLTYTNPSYPNLDHQRSVLFINKKYFLVIDRAIGEATGNLGVHWQLKEDSNPVFDKTKNRVYTTYRDGNNLMIQSLNADRTSLNEEEGKVSYVYNKELKRPAFVFEKPKKNAGTQNFVSIVYPYDGQKAPEISIRENKGNDFEKGKLNLTLTINGKQQLVLVP

How the values were obtained:
Type in all cases: cell-based, human
[1] = tested on: HaCat keratinocytes or MCF10A mammary epithelial cells; assay: competition of LPA-induced haptotactic migration by GST fusion proteins or synthetic peptides (FIG. 10 summary); conditions: 0.1 to 30 μM, 3 μM LPA
Procedure: FIGS. 10A-C. Schematic summary of experiments using either recombinant GST fusion proteins or synthetic peptides to disrupt Sdc1-dependent coupling of HER2 to α6β4 integrin necessary for LPA-induced haptotactic migration. GST-fusion proteins or synthetic peptides were added at concentrations ranging from 0.1 to 30 μM to the culture medium of human HaCat keratinocytes or MCF10A mammary epithelial cells in the presence or absence of 3 μM LPA. The ability of the constructs to inhibit the migration of the cells to close a scratch wound in confluent monolayers was determined and expressed as the concentration of inhibitor necessary to cause 50% inhibition of cell migration. (FIG. 10A) Competition using recombinant GST-fusion proteins. GST-Sdc1 fusion proteins bearing truncations or mutations were assessed for their competitive activity. […] (FIG. 10B) Competition with synthetic peptides. Peptides were purchased from commercial sources for testing as a putative synstatin inhibitory peptide (SSTNHER2). […] (FIG. 10C) Schematic representation of the active site in Sdc1. The active site is shown as a juxtamembrane site in the ectodomain of Sdc1. TM is the transmembrane domain and CYTO is the cytoplasmic domain. The sequence of a peptide derived from this site (SSTNHER2) is shown along with its homology across other mammalian Sdc1 species. The human STTNHER2 sequence is SEQ ID NO:23; the homology for STTNHER2 across mammals is SEQ ID NO:24.
(§1) HaCat or MCF10A cells were grown to confluence on 48 well-plates were starved for 6 hr by serum deprivation followed by introduction of a scratch wound in the monolayer using 200 μl pipette tip. Cells were cultured an additional 18 hr in DMEM containing mAb 3E1 (10 μg/ml) and goat anti-mouse IgG (50 μg/ml), EGF (10 ng/ml) or HGF (20 ng/ml) to cause cell migration in the presence or absence of inhibitors. Images were acquired using a PlanApo 20 (0.75 numerical aperture) objective and a Photometrics CoolSnap ES camera on a Nikon Eclipse TE2000U microscopy system and wound closure quantified.

HaCat keratinocytes = assay: scratch wound haptotaxis induced by LPA and clustering of α6β4 integrin; conditions: LPA + α6β4 clustered with mAb 3E1 and secondary antibody, AG825 10 μM, Iressa 1 μM
Source text: FIG. 6A-D. Sdc1 is required for HER2/α6β4-dependent HaCat keratinocyte migration. (FIG. 6A) HaCat keratinocytes deposit laminin 332 (LN332) and migrate upon this using α3β1 and α6β4 integrins to close a scratch wound in the monolayer when stimulated to undergo chemotaxis in response to EGF. Alternatively, migration is induced by clustering the integrin (using mAb 3E1 against the integrin+a secondary antibody to cluster the first antibody and thus the entire complex) in the presence of LPA. This mimics the clustering that occurs when the cells engage LN332 and is referred to as haptotaxis. […] (FIG. 6B) Haptotaxis, stimulated by LPA and clustering of α6β4 integrin as described in FIG. 6A, is blocked by antibody directed against the α3β1 integrin or by BM165 which targets the binding site for α3β1 in LN332. […] (FIG. 6C) The potential roles of Sdc1 or Sdc4 in haptotaxis is tested by silencing their expression, together with attempting to rescue with either wild-type mouse Sdc1 or Sdc4, or mouse mutants unable to engage the β4 cytoplasmic domain (mSdc1ΔC2 or mSdc4ΔC2). Haptotaxis is blocked by silencing endogenous Sdc1, and this cannot be rescued by Sdc1ΔC2 that fails to engage the α6β4 integrin. Silencing Sdc4 also disrupts migration, but this traces to its role in activity of the α3β1 integrin and not a role in engaging the α6β4 integrin, as it can be rescued by mSdc4ΔC2 that fails to associate with the α6β4 integrin. (FIG. 6D) Immunoprecipitation of either native mSdc4 or mSdc4[…]C2 confirms that the mSdc4ΔC2 mutant no longer associates with the α6β4 integrin, but does with the α3β1 integrin. […]
HaCat or MCF10A cells were grown to confluence on 48 well-plates were starved for 6 hr by serum deprivation followed by introduction of a scratch wound in the monolayer using 200 μl pipette tip. […] Images were acquired using a PlanApo 20 (0.75 numerical aperture) objective and a Photometrics CoolSnap ES camera on a Nikon Eclipse TE2000U microscopy system and wound closure quantified. […]

[2] = tested on: MCF10A mammary epithelial cells; assay: scratch wound haptotaxis induced by clustering the α6β4 integrin; conditions: α6β4 integrin clustered
Procedure: FIG. 9. Sdc1 ectodomain fragments and β4 dominant-negative mutant specific for Sdc1/α6β4/HER2 block MCF10A mammary epithelial cell migration. Haptotaxis of MCF10A human mammary epithelial cells induced by clustering the α6β4 integrin in a scratch wound assay is used to test the efficacy of inhibitors that target the Sdc1 mechanism. Cells are incubated either with entire recombinant syndecan ectodomains (Sdc1 ectodomain (S1ED) or Sdc4 ectodomain (S4ED) as a control), or an active fragment of mouse S1ED (S1ED^200-252) containing the inhibitory site.
as §1
The inventor used this assay to further truncate the S1ED recombinant proteins in order to find the smallest peptide that retains full inhibitory activity (e.g., SSTNHER2). The inventor tested mouse and human S1ED and find that they compete equally. […]

A431 cells = assay: A431 cell attachment and spreading on LN332; conditions: 2 hr, mAb13 30 μg/ml, heparinase III 0.4 CU/ml, Sdc1 siRNA 100 nM
Procedure: FIGS. 2A-E. Requirement of syndecan-1 for A431 cell spreading on LN332. A431 […] cells plated on slides coated with 10 μg/ml LN332 (FIG. 2A) without treatment; (FIG. 2B) with blocking antibody 3E1 to α6β4; (FIG. 2C) prior treatment with heparinase III; or (FIG. 2D) prior treatment with siRNA specific for human Sdc1. (FIG. 2E) Quantification of spread cells plated on LN332 and treated with blocking antibody to β1 integrin (mAb13 30 μg/ml) or control IgG (20 μg/ml), 3E1 blocking antibody (20 ug/ml) to β4 integrin, heparinase III (0.4 CU/ml) or human Sdc1 siRNA (100 nM). Data represent triplicate experiments +/−S.D. (Wang et al., 2010).
Nitrocellulose-coated 10-well glass slides (Erie Scientific, Portsmouth, N.H.) were prepared as described by Beauvais and. Rapraeger (2010). Wells of slide were coated at 37° C. for 2 h with mAb 3E1 (3 μg/ml), diluted in phosphate-buffered saline (CMF-PBS: 135 mM NaCl, 2.7 mM KCl, 10.2 mM Na2HPO47H2O, and 1.75 mM KH2PO4, pH 7.4), and blocked with serum-free Hepes-buffered DMEM (pH 7.4) containing 0.1% heat-denatured bovine serum albumin (plating medium). Cells were lifted with trypsin (0.25% w/v), washed with DMEM, and regenerated in suspension for 1 h at 37° C. in DMEM containing 10% fetal bovine serum. Cells were then plated in wells (50 μl/well) in plating medium at 10^5 cells/ml. […]

Molecule	competitive (inhibitory) activity on haptotactic migration [1]	haptotaxis (migration to close a scratch wound) (HaCat keratinocytes)	other results
210-236: truncated synthetic peptide, amino acids 210-236 of human Sdc1 (DFTFETSGENTAVVAVEPDRRNQSPVD; UniProt P18827 210-236, looked up, fragment)	loss of activity	–	–
214-240: truncated synthetic peptide, amino acids 214-240 of human Sdc1 (ETSGENTAVVAVEPDRRNQSPVDQGAT; UniProt P18827 214-240, looked up, fragment)	loss of activity	–	–
COc1cc(/C=C(\C#N)C(N)=O)cc(CSc2nc3ccccc3s2)c1O [AG825]	–	blocks migration	–
COc1cc2ncnc(Nc3ccc(F)c(Cl)c3)c2cc1OCCCN1CCOCC1 [Iressa]	–	without effect	–
S1ED^200-252: active fragment of mouse S1ED containing the inhibitory site, recombinant fusion protein (QLPAGEGSGEQDFTFETSGENTAVAAVEPGLRNQPPVDEGATGASQSLLDRKE; also: recombinant fusion protein, partner not given here; UniProt P18828 200-252, looked up, fragment)	–	–	haptotaxis (migration to close a scratch wound) [2]: competes for haptotaxis
B1	–	–	cell spreading on LN332 (A431 cells): disrupted
